Measurements taken from patent US20140206726A1 (priority 2011, published 2014).

Experiments:
[1] = Measurement of logP values by HPLC on reversed phase columns (EEC directive 79/831 Annex V.A8); assay type: physicochemical; details: for LogP: method [a]: pH 2,7, 0.1% formic acid in water / acetonitrile, linear gradient 10% to 95% acetonitrile
Experimental: Measurement of logP values was performed according EEC directive 79/831 Annex V.A8 by HPLC (High Performance Liquid Chromatography) on reversed phase columns with the following methods:
^[a] Measurement of LC-MS was done at pH 2,7 with 0.1% formic acid in water and with acetonitrile (contains 0.1% formic acid) as eluent with a linear gradient from 10% acetonitrile to 95% acetonitrile.
Calibration was done with not branched alkan2-ones (with 3 to 16 carbon atoms) with known logP-values (measurement of logP values using retention times with linear interpolation between successive alkanones). lambda-maX-values were determined using UV-spectra from 200 nm to 400 nm and the peak values of the chromatographic signals.

Phytophthora infestans = assay type: in vivo; details: tomato plants, preventive spray, 100 ppm of active ingredient, evaluated 7 days after inoculation
Plasmopara viticola = assay: Plasmopara test (grapevines) / preventive; assay type: in vivo; details: grapevine plants, preventive spray, 10 ppm of active ingredient, evaluated 6 days after inoculation
Experimental: Plasmopara Test (Grapevines)/Preventive
Solvent: 24.5 parts by weight of acetone • 24.5 parts by weight of dimethylacetamide
Emulsifier: 1 part by weight of alkylaryl polyglycol ether
To produce a suitable preparation of active compound, 1 part by weight of active compound is mixed with the stated amounts of solvent and emulsifier, and the concentrate is diluted with water to the desired concentration.
To test for preventive activity, young plants are sprayed with the preparation of active compound at the stated rate of application. After the spray coating has dried on, the plants are inoculated with an aqueous spore suspension of Plasmopara viticola and then remain for 1 day in an incubation cabinet at approximately 20° C. and a relative atmospheric humidity of 100%. The plant is subsequently placed for 4 days in a greenhouse at approximately 21° C. and a relative atmospheric humidity of approximately 90%.
The plants are then misted and placed for 1 day in an incubation cabinet.
The test is evaluated 6 days after the inoculation. 0% means an efficacy which corresponds to that of the untreated control, while an efficacy of 100% means that no disease is observed.

Row | Structure (SMILES) | LogP [1] | Eff. % (Phytophthora infestans) [%] | Eff. % (Plasmopara viticola) [%] | chromatographic logP ([1]; reversed phase HPLC columns, pH 2.7, HCOOH method, reported in preparation example)
1 | COc1ccc(C2=NOC(C(=O)Nc3nc(CON=C(c4ccccc4)c4nnnn4C)cs3)C2)cc1 (stereo not drawn) [Example 21] | 3.25^[a] | 85 | – | –
2 | CC1=NOC(C(=O)Nc2nc(CON=C(c3ccccc3)n3nnnc3C)cs2)C1 (stereo not drawn) [Example 27] | 2.42^[a] | – | – | –
3 | Cn1nnnc1C(=NOCc1csc(NC(=O)C2CC(c3ccccc3F)=NO2)n1)c1ccccc1 (stereo not drawn) [Example 11] | 3.29^[a] | 95 | – | –
4 | Cc1nnnn1C(=NOCc1csc(NC(=O)C2CC(c3c(F)cccc3Cl)=NO2)n1)c1ccccc1 (stereo not drawn) [Example 22] | 3.48^[a] | 90 | – | –
5 | CCC1=NOC(C(=O)Nc2nc(CON=C(c3ccccc3)c3nnnn3C)cs2)C1 (stereo not drawn) [Example 19] | 2.64^[a] | 85 | – | –
6 | CC1=NOC(C)(C(=O)Nc2nc(CON=C(c3ccccc3)n3nnnc3C)cs2)C1 (stereo not drawn) [Example 7] | 2.73^[a] | – | – | –
7 | Cn1nnnc1C(=NOCc1csc(NC(=O)C2CC(c3ccccc3Cl)=NO2)n1)c1ccccc1 (stereo not drawn) [Example 15] | 3.48^[a] | 90 | – | –
8 | Cn1nnnc1C(=NOCc1cccc(NC(=O)C2CC(c3ccccc3)=NO2)n1)c1ccccc1 (stereo not drawn) [Example 2] | 3.51^[a] | – | – | –
9 | Cn1nnnc1C(=NOCc1csc(NC(=O)C2(C)CC(c3ccccc3)=NO2)n1)c1ccccc1 (stereo not drawn) [Example 13] | 3.6^[a] | 100 | 97 | –
10 | Cc1nnnn1C(=NOCc1cccc(NC(=O)C2CC(c3ccccc3F)=NO2)n1)c1ccccc1 (stereo not drawn) [Example 4] | 3.59^[a] | 95 | – | –
11 | Cn1nnnc1C(=NOCc1csc(NC(=O)C2CC(c3c(F)cccc3Cl)=NO2)n1)c1ccccc1 (stereo not drawn) [Example 20] | 3.44^[a] | 93 | – | –
12 | Cc1nnnn1C(=NOCc1csc(NC(=O)C2CC(c3ccccc3Cl)=NO2)n1)c1ccccc1 (stereo not drawn) [Example 28] | 3.55^[a] | 90 | – | –
13 | COc1ccc(C2=NOC(C(=O)Nc3nc(CON=C(c4ccccc4)n4nnnc4C)cs3)C2)cc1 (stereo not drawn) [Example 23] | 3.29^[a] | – | – | –
14 | CC1=NOC(C)(C(=O)Nc2nc(CON=C(c3ccccc3)c3nnnn3C)cs2)C1 (stereo not drawn) [Example 9] | 2.69^[a] | 85 | – | –
15 | Cn1nnnc1/C(=N\OCc1cccc(NC(=O)C2CC(c3ccccc3F)=NO2)n1)c1ccccc1 (stereo not drawn) [Example 3, 3-(2-fluorophenyl)-N-{6-[({[(Z)-(1-methyl-1H-tetrazol-5-yl)(phenyl)methylene]amino}oxy)methyl]pyridin-2-yl}-4,5-dihydro-1,2-oxazole-5-carboxamide] | – | 93 | 74 | 3.5
16 | Cc1nnnn1C(=NOCc1cccc(NC(=O)C2(C)CC(c3ccccc3)=NO2)n1)c1ccccc1 (stereo not drawn) [Example 6] | 3.94^[a] | 95 | 85 | –
17 | CC1=NOC(C)(C(=O)Nc2cccc(CON=C(c3ccccc3)c3nnnn3C)n2)C1 (stereo not drawn) [Example 1] | 2.84^[a] | – | – | –
18 | Cc1nnnn1C(=NOCc1csc(NC(=O)C2CC(C(C)C)=NO2)n1)c1ccccc1 (stereo not drawn) [Example 25] | 2.96^[a] | 85 | – | –
19 | Cn1nnnc1C(=NOCc1csc(NC(=O)C2CC(c3ccccc3)=NO2)n1)c1ccccc1 (stereo not drawn) [Example 10] | 3.31^[a] | 93 | – | –
20 | CC(C)C1=NOC(C(=O)Nc2nc(CON=C(c3ccccc3)c3nnnn3C)cs2)C1 (stereo not drawn) [Example 18] | 2.92^[a] | 93 | – | –
21 | Cc1nnnn1C(=NOCc1csc(NC(=O)C2CC(c3ccccc3)=NO2)n1)c1ccccc1 (stereo not drawn) [Example 8] | 3.35^[a] | 95 | – | –
22 | Cc1nnnn1C(=NOCc1csc(NC(=O)C2(C)CC(c3ccccc3)=NO2)n1)c1ccccc1 (stereo not drawn) [Example 14] | 3.64^[a] | 95 | 92 | –
23 | Cc1nnnn1C(=NOCc1csc(NC(=O)C2CC(c3cc(F)ccc3F)=NO2)n1)c1ccccc1 (stereo not drawn) [Example 24] | 3.46^[a] | 93 | – | –
24 | CCC1=NOC(C(=O)Nc2nc(CON=C(c3ccccc3)n3nnnc3C)cs2)C1 (stereo not drawn) [Example 26] | 2.68^[a] | – | – | –
25 | Cn1nnnc1C(=NOCc1csc(NC(=O)C2CC(c3cc(F)ccc3F)=NO2)n1)c1ccccc1 (stereo not drawn) [Example 17] | 3.39^[a] | 95 | – | –
26 | Cc1nnnn1C(=NOCc1csc(NC(=O)C2CC(c3ccccc3F)=NO2)n1)c1ccccc1 (stereo not drawn) [Example 12] | 3.31^[a] | 95 | – | –
27 | Cn1nnnc1C(=NOCc1cccc(NC(=O)C2(C)CC(c3ccccc3)=NO2)n1)c1ccccc1 (stereo not drawn) [Example 5] | 3.87^[a] | 89 | – | –
28 | CC1=NOC(C(=O)Nc2nc(CON=C(c3ccccc3)c3nnnn3C)cs2)C1 (stereo not drawn) [Example 16] | 2.35^[a] | 93 | – | –
